Several values for one entry are separate records, joined by “and”; a condition that tells them apart may be missing. Equal entries are not always repeated. Where two headings read alike, the source gives them in different places.
Assay: Pharmacokinetics in humans, MRTX1133 formulation, oral, single and multiple doses
Assay type: in vivo
Details: for AUC0-12 Accumulation Ratio, Geo Mean / Cmax Accumulation Ratio, Geo Mean / Peak to Trough Ratio, Geo Mean: geometric mean of subjects
Description: The pharmacokinetics [PK] of the MRTX1133 formulation after oral administration has been evaluated in 25 subjects across 3 escalating dose frequencies under fasting conditions (200 mg twice daily [BID], 400 mg BID, and 800 mg BID), as well as evaluation of 400 mg BID when administered with a low-fat meal (i.e., under fed conditions). The mean (+standard deviation) single-dose and multiple-dose pharmacokinetic profiles of the evaluated doses are presented in FIG. 9 and FIG. 10, respectively. Individual single- and multiple-dose PK profiles can be found in FIG. 11. For all figures, the X-axis represents nominal time of sample collection (hours [h]) and the Y-axis represents plasma concentration (ng/mL). Table 10 lists PK data following the oral administration of a single dose and multiple doses of MRTX1133 formulation by dose level and subject.

[1] = multiple oral doses of 200 mg BID, fasted
[2] = multiple oral doses of 200 mg BID, fasted, individual subjects
[3] = multiple oral doses of 400 mg BID with a low-fat meal
[4] = multiple oral doses of 400 mg BID with a low-fat meal, individual subjects
[5] = multiple oral doses of 400 mg BID, fasted
[6] = multiple oral doses of 400 mg BID, fasted, individual subjects
[7] = multiple oral doses of 800 mg BID, fasted, Geo Mean of subjects

concentration at 0 h (human, plasma, po, 800 mg, single oral dose of 800 mg, fasted, 0 h, individual subjects, read-out: Plasma concentration): 0 ng/mL | concentration at 0.5 h (human, plasma, po, 800 mg, single oral dose of 800 mg, fasted, 0.5 h, mean of subjects, read-out: Plasma concentration, Mean): 235 ng/mL | concentration at 1 h (human, plasma, po, 800 mg, single oral dose of 800 mg, fasted, 1 h, mean of subjects, read-out: Plasma concentration, Mean): 286 ng/mL | concentration at 1.5 h (human, plasma, po, 800 mg, single oral dose of 800 mg, fasted, 1.5 h, mean of subjects, read-out: Plasma concentration, Mean): 151 ng/mL | concentration at 2 h (human, plasma, po, 800 mg, single oral dose of 800 mg, fasted, 2 h, mean of subjects, read-out: Plasma concentration, Mean): 117 ng/mL | concentration at 4 h (human, plasma, po, 800 mg, single oral dose of 800 mg, fasted, 4 h, mean of subjects, read-out: Plasma concentration, Mean): 67.6 ng/mL | concentration at 6 h (human, plasma, po, 800 mg, single oral dose of 800 mg, fasted, 6 h, mean of subjects, read-out: Plasma concentration, Mean): 57.9 ng/mL | concentration at 8 h (human, plasma, po, 800 mg, single oral dose of 800 mg, fasted, 8 h, mean of subjects, read-out: Plasma concentration, Mean): 49.7 ng/mL | concentration at 12 h (human, plasma, po, 800 mg, single oral dose of 800 mg, fasted, 12 h, mean of subjects, read-out: Plasma concentration, Mean): 12.6 ng/mL | concentration at 24 h (human, plasma, po, 800 mg, single oral dose of 800 mg, fasted, 24 h, mean of subjects, read-out: Plasma concentration, Mean): 25.5 ng/mL | AUC(0-t) (human, plasma, po, 800 mg, single oral dose of 800 mg, fasted, Geo Mean of subjects, read-out: AUC0-12): 440 ng·h/mL | AUC0-inf (human, plasma, po, 800 mg, single oral dose of 800 mg, fasted, Geo Mean of subjects, read-out: AUC0-inf): 543 ng·h/mL | AUC(0-t) (human, plasma, po, 800 mg, single oral dose of 800 mg, fasted, Geo Mean of subjects, read-out: AUC0-last): 463 ng·h/mL | Cmax (human, plasma, po, 800 mg, single oral dose of 800 mg, fasted, Geo Mean of subjects, read-out: Cmax): 123 ng/mL | Tmax (human, plasma, po, 800 mg, single oral dose of 800 mg, fasted, Median of subjects, read-out: Tmax): 1.2 h | AUC0-12 Accumulation Ratio, Geo Mean [1]: 0.9 | Cmax Accumulation Ratio, Geo Mean [1]: 0.6 | Peak to Trough Ratio, Geo Mean [1]: 12.3 | AUC0-12 Accumulation Ratio [2]: 1.30 and 0.94 and 0.44 and 1.16 | Cmax Accumulation Ratio [2]: 0.73 and 0.71 and 0.85 and 1.26 and 0.14 | Peak to Trough Ratio [2]: 52.1 and 2.75 and 78.2 and 24.9 and 1.02 | Tlast [2]: 12 h (4×) and 2.0 h | Tmax [2]: 0.5 h | AUC0-12 Accumulation Ratio, Geo Mean [3]: 1.7 | Cmax Accumulation Ratio, Geo Mean [3]: 1.9 | Peak to Trough Ratio, Geo Mean [3]: 12.9 | AUC0-12 Accumulation Ratio [4]: 2.61 and 1.50 and 2.52 and 0.75 | Cmax Accumulation Ratio [4]: 4.69 and 2.66 and 1.71 and 0.63 | Peak to Trough Ratio [4]: 7.25 and 84.7 and 10.6 and 4.27 | Tlast [4]: 12 h | AUC0-12 Accumulation Ratio, Geo Mean [5]: 1.6 | Cmax Accumulation Ratio, Geo Mean [5]: 1.3 | Peak to Trough Ratio, Geo Mean [5]: 11.1 | Tlast [6]: 12 h | Tmax [6]: 6.0 h and 0.5 h (3×) | AUC0-12 Accumulation Ratio [7]: 1.0 | Cmax Accumulation Ratio [7]: 0.8 | Peak to Trough Ratio [7]: 9.6
SMILES: C#Cc1c(F)ccc2cc(O)cc(-c3ncc4c(N5C[C@H]6CC[C@@H](C5)N6)nc(OC[C@@]56CCCN5C[C@H](F)C6)nc4c3F)c12 [MRTX1133, 4-(4-((1R,5S)-3,8-diazabicyclo[3.2.1]octan-3-yl)-8-fluoro-2-(((2R,7aS)-2-fluorohexahydro-1Hpyrrolizin-7a-yl)methoxy)pyrido[4,3-d]pyrimidin-7-yl)-5-ethynyl-6-fluoronaphthalen-2-ol]
AUC0-12 [2]: 181 ng·h/mL and 84.0 ng·h/mL and 42.9 ng·h/mL and 115 ng·h/mL | AUC0-last [2]: 181 ng·h/mL and 84.0 ng·h/mL and 42.9 ng·h/mL and 115 ng·h/mL and 31.9 ng·h/mL | Cmax [2]: 85.0 ng/mL and 15.0 ng/mL and 49.4 ng/mL and 56.2 ng/mL and 17.1 ng/mL | AUC0-12 [4]: 1,475 ng · h/mL and 457 ng · h/mL and 107 ng · h/mL and 127 ng · h/mL | AUC0-last [4]: 1,475 ng · h/mL and 457 ng · h/mL and 107 ng · h/mL and 127 ng · h/mL | Cmax [4]: 390 ng/mL and 250 ng/mL and 48.2 ng/mL and 23.0 ng/mL | Plasma concentration (multiple oral doses of 400 mg BID, fasted, 0.5 h, individual subjects): 79.1 ng/mL and 58.5 ng/mL and 82.8 ng/mL and 83.0 ng/mL and 29.7 ng/mL and 23.6 ng/mL and 152 ng/mL | Plasma concentration (multiple oral doses of 400 mg BID, fasted, 1 h, individual subjects): 129 ng/mL and 31.5 ng/mL and 61.2 ng/mL and 38.4 ng/mL and 11.5 ng/mL and 44.7 ng/mL and 285 ng/mL | Plasma concentration (multiple oral doses of 400 mg BID, fasted, 1.5 h, individual subjects): 90.2 ng/mL and 28.5 ng/mL and 38.9 ng/mL and 32.3 ng/mL and 15.2 ng/mL and 38.0 ng/mL and 209 ng/mL | Plasma concentration (multiple oral doses of 400 mg BID, fasted, 2 h, individual subjects): 99.0 ng/mL and 27.2 ng/mL and 55.6 ng/mL and 23.4 ng/mL and 21.1 ng/mL and 30.0 ng/mL and 83.1 ng/mL | Plasma concentration (multiple oral doses of 400 mg BID, fasted, 4 h, individual subjects): 82.8 ng/mL and 11.0 ng/mL and 115 ng/mL and 23.8 ng/mL and 5.34 ng/mL and 233 ng/mL and 70.5 ng/mL | Plasma concentration (multiple oral doses of 400 mg BID, fasted, 6 h, individual subjects): 189 ng/mL and 2.51 ng/mL and 45.3 ng/mL and 10.7 ng/mL and 4.38 ng/mL and 148 ng/mL and 43.8 ng/mL | Plasma concentration (multiple oral doses of 400 mg BID, fasted, 8 h, individual subjects): 88.9 ng/mL and 2.27 ng/mL and 33.3 ng/mL and 8.36 ng/mL and 3.68 ng/mL and 110 ng/mL and 35.5 ng/mL | Plasma concentration (multiple oral doses of 400 mg BID, fasted, 12 h, individual subjects): 76.9 ng/mL and 2.76 ng/mL and 31.2 ng/mL and 6.42 ng/mL and 3.71 ng/mL and 42.1 ng/mL and 31.3 ng/mL | AUC0-12 [6]: 1,237 ng · h/mL and 128 ng · h/mL and 640 ng · h/mL and 211 ng · h/mL and 89.4 ng · h/mL and 1,239 ng · h/mL and 821 ng · h/mL | AUC0-12 Accumulation Ratio [6]: 3.02 and 1.35 and 5.02 and 1.40 and 0.76 and 0.73 and 1.41 | AUC0-last [6]: 1,237 ng · h/mL and 128 ng · h/mL and 640 ng · h/mL and 211 ng · h/mL and 89.4 ng · h/mL and 1,239 ng · h/mL and 821 ng · h/mL | Cmax [6]: 189 ng/mL and 58.5 ng/mL and 115 ng/mL and 83.0 ng/mL and 29.7 ng/mL and 233 ng/mL and 285 ng/mL | Cmax Accumulation Ratio [6]: 3.04 and 0.94 and 1.73 and 1.17 and 0.80 and 0.83 and 1.52 | Peak to Trough Ratio [6]: 3.30 and 101 and 3.47 and 9.10 and 6.32 and 23.7 and 13.4
